Laboratory results published in ChEMBL document CHEMBL1158652, “Constituents of Helenium amarum. II. Isolation and Characterization of Heleniamarin and Other Constituents” (1979).
In brackets after ≈: the same amount, converted by molar mass.

test system: KB; test: Cytotoxicity against human KB cells; type: functional; conditions: read-out: ED50 (the source's name)

Going from C[C@@H]1C[C@@H]2OC(=O)[C@]3(C)[C@H]2[C@@H](OC3(C)O)[C@]2(C)C(=O)C=C[C@@H]12 (some centres undefined) [TENULIN] to C=C1C(=O)O[C@H]2C[C@@H](C)[C@@H]3C=CC(=O)[C@@]3(C)[C@H](O)[C@H]12 [MEXICANIN I], the EC50 falls from 26 µg/mL (≈ 84.9 µM) to 1.9 µg/mL (≈ 7.24 µM) (14-fold).

Going from COc1c(O)cc2oc(-c3ccc(O)cc3)cc(=O)c2c1O [HISPIDULIN] to C=C1C(=O)O[C@H]2C[C@@H](C)[C@@H]3C=CC(=O)[C@@]3(C)C[C@H]12 [AROMATICIN], the EC50 falls from 96 µg/mL (≈ 320 µM) to 2 µg/mL (≈ 8.12 µM) (48-fold).
